Data on two molecules can be found in US20110256206A1, “IMPLANTABLE DEVICES FOR TREATING HIV” (priority 2008, published 2011).

For series [1] the following is noted: clinical studies; less frequent than with marketed NNRTIs; cited from earlier work.
Series [2] is described as follows: Effect of gamma irradiation process parameters on recovery of TMC278 from polymer specimens. The format is physicochemical. The procedure:
For those samples that were irradiated under a nitrogen atmosphere, the following procedure was followed. Polymer implants were prepared containing 60% TMC278 and 40% PLGA 50/50 as described above. Samples were placed in Nalgene™ cuvettes inside the antechamber of a nitrogen glovebox. An automatic vacuum cycle was executed consisting of three 8 minute vacuum purges each followed by nitrogen refilling. The samples were transferred to the main chamber and allowed to equilibrate overnight. The cuvettes were placed in foil pouches and the pouches were sealed before removal from the nitrogen glovebox. Samples were removed from glovebox and irradiated as directed.
Those samples that were irradiated under ambient conditions were placed in vials and aluminum pouches, which were heat sealed under ambient conditions and were stored at 0° C. until they reached that temperature. The samples that were processed at 0° C. were stored at 0° C. Subsequently, the samples were removed from freezer environment and immediately placed in the irradiator. […]
From the data it can be seen that exposure level of irradiation is the most significant factor in achieving complete recovery of TMC278 from irradiated samples. […] In addition, the samples that were exposed to 15 kgy irradiation under nitrogen environment were analyzed for impurities stemming from TMC278 degradation.

The nature of series [3]: Solubility of TMC278 and of TMC278 recrystallized from DMSO. Format: physicochemical. The procedure:
In addition to increasing the water uptake into the bulk of the polymer, excipients can be used to decrease the crystallinity of the TMC278 and thereby lower the energy necessary to solubilize the drug. […] The recrystallized TMC278 was prepared by dissolving 10 grams of TMC278 in 800 ml of DMSO under gentle stirring for 2 hours. One hundred milliliters of the solution was subsequently poured into a flat bottomed aluminum mold. Solution was lyophilized using a Dora-Stop MTS system. Lyophilized TMC278 was collected. Two grams of PLGA 50/50 were fed into DACA compounder that was pre-set to 120° C. with screws rotating at 100 rpm. After the polymer was fed into the DACA and melted, two grams of lyophilized TMC278 were fed into the compounder and mixed at the set conditions for an additional 5 minutes. The extruded strands were collected, cooled in ambient conditions and placed in plastic bags and stored in a nitrogen box for analysis.
The lowered crystallinity of the TMC278 when re-crystallized from DMSO is also reflected in the change of the appearance of the TMC278 crystals following the recrystallization procedure. The morphology of the TMC278 particles in the drug powder appear compact and needle-shaped, but after the recrystallization process the particles are highly porous (FIG. 3). […]

In the case of `Cc1cc(C=CC#N)cc(C)c1Nc1ccnc(Nc2ccc(C#N)cc2)n1` [TMC278, 4-[[4-[[4-(2-cyanoethenyl)-2,6-dimethylphenyl}-amino]-2-pyrimidinyl]-amino]-benzonitrile], the Side effects entry in series [1] is “nausea, dizziness, abnormal dreams, dyspepsia, asthenia, skin rashes, somnolence and vertigo”. In addition, the “Impurities stemming from TMC278 degradation (mass spectrometry)” value in series [2] (15 kgy irradiation under nitrogen environment) is “no new impurities formed by the irradiation”. For the same molecule, the “TMC278 recovered (average)” value in series [2] (irradiated at 25 kgy (under nitrogen)) worked out at 81%. For the same molecule, in series [3] (DMSO), the “Solubility in DMSO” value is reported as “highly soluble”.
Take `Cc1cc(/C=C/C#N)cc(C)c1Nc1ccnc(Nc2ccc(C#N)cc2)n1` [recrystallized TMC278]: in series [3] (recrystallized (lyophilized from DMSO) versus unrecrystallized TMC278), the “Solubility relative to unrecrystallized TMC278” value was “more than 250 ×”.
